In PubChem BioAssay AID248 (DTP/NCI, 2004):
“And” between values parts separate entries of the source, which are not always exact repeats. Equal entries are not always repeated. Toxic doses and inconclusive results are not listed. No stated cut-off is given here; in the data, active means T/C of 150% or more; inactive means T/C below 125%.

System: L1210 leukemia ip in BDF1 mice, survival T/C
Assay: NCI In Vivo Anticancer Drug Screen. Data for tumor model L1210 Leukemia (intraperitoneal) in B6D2F1 (BDF1) mice
Conditions: endpoint: mean survival time, higher = longer survival
Method in brief: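 Tumor was transplanted into mice, which were then dosed with test compound or vehicle alone. Survival was recorded for each group, and the treated figure was expressed relative to the control figure.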

[1] = dose: 10.0 mg/kg/injection, schedule: Q01DX001 (ip), vehicle: saline
[2] = dose: 20.0 mg/kg/injection, schedule: Q01DX001 (ip), vehicle: saline
[3] = dose: 100.0 mg/kg/injection, schedule: Q04DX003 (ip), vehicle: Klucel (hydroxypropylcellulose) (HPC)
[4] = dose: 200.0 mg/kg/injection, schedule: Q04DX003 (ip), vehicle: Klucel (hydroxypropylcellulose) (HPC)
[5] = dose: 400.0 mg/kg/injection, schedule: Q04DX003 (ip), vehicle: Klucel (hydroxypropylcellulose) (HPC)
[6] = dose: 100.0 mg/kg/injection, schedule: Q01DX009 (ip), vehicle: Klucel (hydroxypropylcellulose) (HPC)
[7] = dose: 200.0 mg/kg/injection, schedule: Q01DX009 (ip), vehicle: Klucel (hydroxypropylcellulose) (HPC)
[8] = dose: 100.0 mg/kg/injection, schedule: Q01DX001 (ip), vehicle: saline
[9] = dose: 200.0 mg/kg/injection, schedule: Q01DX001 (ip), vehicle: saline
[10] = dose: 400.0 mg/kg/injection, schedule: Q01DX001 (ip), vehicle: saline
[11] = dose: 100.0 mg/kg/injection, schedule: Q01DX001 (ip), vehicle: saline with Tween-80
[12] = dose: 200.0 mg/kg/injection, schedule: Q01DX001 (ip), vehicle: saline with Tween-80
[13] = dose: 400.0 mg/kg/injection, schedule: Q01DX001 (ip), vehicle: saline with Tween-80
[14] = dose: 100.0 mg/kg/injection, schedule: Q04DX003 (ip), vehicle: saline with Tween-80
[15] = dose: 200.0 mg/kg/injection, schedule: Q04DX003 (ip), vehicle: saline with Tween-80
[16] = dose: 100.0 mg/kg/injection, schedule: Q04DX002 (ip), vehicle: Klucel (hydroxypropylcellulose) (HPC)
[17] = dose: 200.0 mg/kg/injection, schedule: Q04DX002 (ip), vehicle: Klucel (hydroxypropylcellulose) (HPC)
[18] = dose: 400.0 mg/kg/injection, schedule: Q04DX002 (ip), vehicle: Klucel (hydroxypropylcellulose) (HPC)
[19] = dose: 100.0 mg/kg/injection, schedule: Q01DX009 (ip), vehicle: saline with Tween-80
[20] = dose: 200.0 mg/kg/injection, schedule: Q01DX009 (ip), vehicle: saline with Tween-80
[21] = dose: 400.0 mg/kg/injection, schedule: Q01DX009 (ip), vehicle: saline with Tween-80

Measured: T/C

OC(c1ccccc1)c1ccccc1 (tested in a mixture with another compound)
inactive: dose: 2.5 mg/kg/injection, schedule: Q01DX009 (ip), vehicle: acetone 107 % of control | dose: 5.0 mg/kg/injection, schedule: Q01DX009 (ip), vehicle: acetone 105 % of control | [1] 93 % of control | dose: 10.0 mg/kg/injection, schedule: Q01DX009 (ip), vehicle: acetone 98 % of control | [2] 88 % of control

CC1OC2CC(=O)OC2C2=C1C(=O)c1c(O)c3c(c(O)c1C2=O)C1CC(O)C3(O)C(C)O1 (stereo unspecified)
inactive: dose: 0.01 mg/kg/injection, schedule: Q01DX Z (ip), vehicle: saline 112 % of control | dose: 0.03 mg/kg/injection, schedule: Q01DX Z (ip), vehicle: saline 98 % of control | dose: 0.05 mg/kg/injection, schedule: Q01DX Z (ip), vehicle: saline 90 % of control | dose: 0.1 mg/kg/injection, schedule: Q01DX Z (ip), vehicle: saline 95 % of control | dose: 0.2 mg/kg/injection, schedule: Q01DX Z (ip), vehicle: saline 95 % of control and 100 % of control | dose: 0.4 mg/kg/injection, schedule: Q01DX Z (ip), vehicle: saline 90 % of control | dose: 0.8 mg/kg/injection, schedule: Q01DX Z (ip), vehicle: saline 89 % of control | dose: 1.6 mg/kg/injection, schedule: Q01DX Z (ip), vehicle: saline 94 % of control | dose: 3.2 mg/kg/injection, schedule: Q01DX Z (ip), vehicle: saline 86 % of control | dose: 5.0 mg/kg/injection, schedule: Q01DX001 (ip), vehicle: saline 102 % of control | dose: 6.4 mg/kg/injection, schedule: Q01DX Z (ip), vehicle: saline 92 % of control | [1] 102 % of control | dose: 12.0 mg/kg/injection, schedule: Q01DX Z (ip), vehicle: saline 92 % of control | dose: 12.8 mg/kg/injection, schedule: Q01DX Z (ip), vehicle: saline 87 % of control | [2] 97 % of control | dose: 40.0 mg/kg/injection, schedule: Q01DX001 (ip), vehicle: saline 97 % of control

Nc1ccc2ncccc2c1N
inactive: dose: 100.0 mg/kg/injection, schedule: Q04DX002 (ip), vehicle: saline 107 % of control | dose: 200.0 mg/kg/injection, schedule: Q04DX002 (ip), vehicle: saline 100 % of control | dose: 400.0 mg/kg/injection, schedule: Q04DX002 (ip), vehicle: saline 87 % of control

CCCCCOP(=O)(Cc1ccc(Cl)cc1)OCCCCC
inactive: [3] 87 % of control | [4] 90 % of control | [5] 100 % of control

COc1ccc(OCCOC(=O)Nc2ccc(C)cc2[N+](=O)[O-])cc1
inactive: dose: 50.0 mg/kg/injection, schedule: Q01DX009 (ip), vehicle: Klucel (hydroxypropylcellulose) (HPC) 97 % of control | [6] 90 % of control | [3] 103 % of control | [7] 90 % of control | [4] 103 % of control | [5] 100 % of control

O=C(O)CCCc1cccc2ccccc12
inactive: dose: 37.0 mg/kg/injection, schedule: Q01DX009 (ip), vehicle: gum acacia 97 % of control | dose: 75.0 mg/kg/injection, schedule: Q01DX009 (ip), vehicle: gum acacia 103 % of control | dose: 100.0 mg/kg/injection, schedule: Q04DX003 (ip), vehicle: gum acacia 97 % of control | dose: 150.0 mg/kg/injection, schedule: Q01DX009 (ip), vehicle: gum acacia 92 % of control | dose: 200.0 mg/kg/injection, schedule: Q04DX003 (ip), vehicle: gum acacia 86 % of control

CC(=O)Nc1ccc(Cl)nc1
inactive: [6] 98 % of control | [3] 94 % of control | [7] 92 % of control | [4] 101 % of control | dose: 400.0 mg/kg/injection, schedule: Q01DX009 (ip), vehicle: Klucel (hydroxypropylcellulose) (HPC) 93 % of control | [5] 91 % of control

CCc1ccccc1Nc1cc(=O)[nH]c(=O)[nH]1
inactive: dose: 37.5 mg/kg/injection, schedule: Q01DX001 (ip), vehicle: Klucel (hydroxypropylcellulose) (HPC) 91 % of control | dose: 75.0 mg/kg/injection, schedule: Q01DX001 (ip), vehicle: Klucel (hydroxypropylcellulose) (HPC) 87 % of control | dose: 150.0 mg/kg/injection, schedule: Q01DX001 (ip), vehicle: Klucel (hydroxypropylcellulose) (HPC) 93 % of control

O=COCC1CCC(COC=O)CC1 (stereo unspecified)
inactive: dose: 222.0 mg/kg/injection, schedule: Q01DX Z (ip), vehicle: methylcellulose (MC) 94 % of control | dose: 333.0 mg/kg/injection, schedule: Q01DX Z (ip), vehicle: methylcellulose (MC) 94 % of control | dose: 500.0 mg/kg/injection, schedule: Q01DX Z (ip), vehicle: methylcellulose (MC) 105 % of control

CCC(C)c1cccc2c(C(CC)CC)cccc12 (stereo unspecified)
inactive: [8] 104 % of control | [9] 106 % of control | [10] 112 % of control

COc1ccc(COC(=O)c2cc([N+](=O)[O-])cc([N+](=O)[O-])c2)cc1
inactive: [11] 95 % of control | [12] 100 % of control | [13] 92 % of control

CCN(CC)c1ccc(NCN2C(=O)c3ccccc3C2=O)c(C)c1
inactive: dose: 100.0 mg/kg/injection, schedule: Q04DX002 (ip), vehicle: saline with Tween-80 97 % of control | dose: 200.0 mg/kg/injection, schedule: Q04DX002 (ip), vehicle: saline with Tween-80 111 % of control

CCCCCCCC(=O)Nc1cc2c3c(c1)CCCN3CCC2
inactive: dose: 50.0 mg/kg/injection, schedule: Q04DX003 (ip), vehicle: saline with Tween-80 103 % of control | [14] 97 % of control | [15] 103 % of control

CCCCCCCCCCCCCC(CC1CCCCC1)CC1CCCCC1
inactive: [11] 103 % of control | [12] 102 % of control | [13] 100 % of control

O=C(COc1cccc(Cl)c1)NCc1ccc(NC(=O)c2cccc(S(=O)(=O)F)c2)cc1
inactive: dose: 25.0 mg/kg/injection, schedule: Q04DX002 (ip), vehicle: Klucel (hydroxypropylcellulose) (HPC) 111 % of control | dose: 50.0 mg/kg/injection, schedule: Q04DX002 (ip), vehicle: Klucel (hydroxypropylcellulose) (HPC) 107 % of control | [16] 100 % of control

N#Cc1ccccc1C(=O)O
inactive: [8] 95 % of control | [9] 102 % of control | [10] 96 % of control

CSc1ccccc1NC(=O)c1cccc([N+](=O)[O-])c1
inactive: [16] 105 % of control | [17] 99 % of control | [18] 86 % of control

CCc1ccc(/C(C#N)=C/C=C/c2ccccc2)cc1
inactive: [16] 112 % of control | [17] 102 % of control | [18] 97 % of control

NC(=O)Nc1nc(-c2ccccc2)cc(-c2ccccc2O)n1
inactive: [16] 91 % of control | [17] 91 % of control | [18] 102 % of control

CCCCCCCCCCCCCCCC(=O)N(c1ccc(NC(=O)Nc2ccc(N(C(=O)CCCCCCCCCCCCCCC)C(C)CCCN(CC)CC)cc2)cc1)C(C)CCCN(CC)CC (stereo unspecified)
inactive: [19] 90 % of control | [20] 92 % of control | [21] 97 % of control

O=C(Cl)C1C(c2ccccc2)C1c1ccccc1 (stereo unspecified)
inactive: [14] 106 % of control

COc1cc2c(cc1OC)C13CCN4CC5=CCOC6CC(=O)N2C1C6C5CC43O (stereo unspecified)
inactive: [8] 89 % of control | [9] 86 % of control | [10] 89 % of control

O=C(c1cccc2ccccc12)N(c1ccccc1)c1ccccc1
inactive: [3] 103 % of control

CN(CCO)/N=N/c1nc[nH]c1C#N
inactive: dose: 100.0 mg/kg/injection, schedule: Q01DX001 (ip), vehicle: other 98 % of control | [19] 103 % of control | [14] 102 % of control | dose: 200.0 mg/kg/injection, schedule: Q01DX001 (ip), vehicle: other 100 % of control | [20] 103 % of control | [15] 107 % of control | dose: 400.0 mg/kg/injection, schedule: Q01DX001 (ip), vehicle: other 94 % of control | [21] 113 % of control | dose: 400.0 mg/kg/injection, schedule: Q04DX003 (ip), vehicle: saline with Tween-80 102 % of control
